Laboratory results published in PMC8341910, “Structural and biophysical insights into the mode of covalent binding of rationally designed potent BMX inhibitors” (RSC Chemical Biology, 2020).

Assays:
[1] = test system: LNCaP; experiment: Multi cell line growth assay (CellTiter-Glo, 72 h); type: cell-based, human; settings: Homo sapiens, LNCaP, Prostate, ND = no growth inhibition observed within the concentrations tested
[2] = test system: PC3; experiment: Multi cell line growth assay (CellTiter-Glo, 72 h); type: cell-based, human; settings: Homo sapiens, PC-3, Prostate, ND = no growth inhibition observed
[3] = test system: U-87MG; experiment: Multi cell line growth assay (CellTiter-Glo, 72 h); type: cell-based; settings: Homo sapiens, Brain, ND = no growth inhibition observed
[4] = test system: CAOV3; experiment: Multi cell line growth assay (CellTiter-Glo, 72 h); type: cell-based, human; settings: Homo sapiens, Caov-3, Ovary, ND = no growth inhibition observed
[5] = test system: DAUDI; experiment: Multi cell line growth assay (CellTiter-Glo, 72 h); type: cell-based, human; settings: Homo sapiens, Daudi, Lymphoid, ND = no growth inhibition observed
[6] = biological target: T1, wild-type BMX in PC3 cells (Homo sapiens, UniProt P51813); experiment: BMX degradation assay in PC3 cells (Western blot); type: cell-based; settings: 10 μM; 24 h and 72 h; band intensity normalized to α-Tubulin
T1 construct: endogenous in cells; host or cells: PC3 prostate cancer cells (wild-type, untransfected)
Protocol: The cell proliferation depends on BMX kinase activity that was used to monitor the cellular activity of the compounds (IC50). […].  Fig. 5 (a) Intracellular target engagement in HEK293 cells transiently transfected with BMX expressing NanoLuc®-BMX fusion vector with Promega's NanoBRET™ TE Intracellular Kinase Assay. […] Band intensity was measured using ImageJ and normalized with α-Tubulin band intensity. […] Data are mean ± standard deviation obtained from at least three independent measurements (n = 3). See ESI ^† for additional data and analysis. […] | page 12: […]
degradation assay. Protein band intensity normalized with α-Tubulin band intensity and quantified using ImageJ. Data was obtained from at least three independent measurements […]
concentration against PC3 cells, plated on 6-well plates, a day after attachment. DMSO was used as a control vehicle. At 24 h and 72 h of incubation, cells were washed in 1X PBS and lysed in 100 µL RIPA Buffer (in house) supplemented with EDTA-free Protease Inhibitor Cocktail (Merk) and DNase I (Merk). The lysis procedure was performed by re-suspending cells continuously, followed by a incubation of 30 min on ice. BMX antibody (Abcam) and tubulin antibody (Cell signaling Technology) were used in the Western blot. Band intensity […]

[7] = biological target: T2, BMX (Homo sapiens, UniProt P51813); experiment: KINOMEscan binding; settings: read-out: % Ctrl BMX
T2 sequence (P51813 1-675): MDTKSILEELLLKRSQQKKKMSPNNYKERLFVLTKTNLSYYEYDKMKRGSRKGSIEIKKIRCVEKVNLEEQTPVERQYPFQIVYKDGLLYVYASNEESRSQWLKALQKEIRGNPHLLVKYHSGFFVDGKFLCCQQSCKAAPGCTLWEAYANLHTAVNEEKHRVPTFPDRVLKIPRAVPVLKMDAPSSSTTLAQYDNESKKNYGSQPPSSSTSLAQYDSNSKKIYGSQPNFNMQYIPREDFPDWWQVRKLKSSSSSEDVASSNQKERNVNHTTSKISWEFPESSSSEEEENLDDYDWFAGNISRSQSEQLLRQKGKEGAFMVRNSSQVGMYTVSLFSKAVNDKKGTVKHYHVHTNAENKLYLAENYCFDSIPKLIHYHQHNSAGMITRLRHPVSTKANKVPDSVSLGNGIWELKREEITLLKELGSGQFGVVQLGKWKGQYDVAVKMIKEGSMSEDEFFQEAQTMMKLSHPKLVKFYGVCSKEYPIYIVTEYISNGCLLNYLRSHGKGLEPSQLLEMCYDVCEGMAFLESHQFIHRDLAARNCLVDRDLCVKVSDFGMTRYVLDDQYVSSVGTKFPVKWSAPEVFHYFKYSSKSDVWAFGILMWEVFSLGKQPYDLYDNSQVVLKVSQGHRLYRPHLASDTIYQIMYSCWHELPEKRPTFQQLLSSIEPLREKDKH
Protocol: (§1) Therefore, we included the whole TEC, EGFR and JAK family in our screening, and the Src family and Lkb1, which also have a cysteine within the same sequence alignment.
(§2) Kinome selectivity was performed with DiscoverX KINOMEscan™ technology.

[8] = biological target: BTK (Homo sapiens, UniProt Q06187); experiment: KINOMEscan binding; settings: read-out: % Ctrl BTK
Protocol: as §1, §2

[9] = biological target: ITK (Homo sapiens, UniProt Q08881); experiment: KINOMEscan binding; settings: read-out: % Ctrl ITK
Protocol: as §1, §2

[10] = biological target: TEC (Homo sapiens, UniProt P42680); experiment: KINOMEscan binding; settings: read-out: % Ctrl TEC
Protocol: as §1, §2

[11] = biological target: ERBB2 (Homo sapiens, UniProt P04626); experiment: KINOMEscan binding; settings: read-out: % Ctrl ERBB2
Protocol: as §1, §2

[12] = biological target: JAK1(JH1domain-catalytic) (Homo sapiens, UniProt P23458); experiment: KINOMEscan binding; settings: read-out: % Ctrl JAK1(JH1domain-catalytic)
Protocol: as §1, §2

[13] = biological target: JAK2(JH1domain-catalytic) (Homo sapiens, UniProt O60674); experiment: KINOMEscan binding; settings: read-out: % Ctrl JAK2(JH1domain-catalytic)
Protocol: (§3) Therefore, we included the whole TEC, EGFR and JAK family in our screening, and the Src family and Lkb1, which also have a cysteine within the same sequence alignment. We also included kinases involved in upstream (Src, FAK, PI3K, mTOR, PDK1) and downstream (Akt, PAK1, TAM) regulation of BMX signaling pathway and non-receptor tyrosine protein kinase Abl.
as §2

[14] = biological target: TYK2(JH1domain-catalytic) (Homo sapiens, UniProt P29597); experiment: KINOMEscan binding; settings: read-out: % Ctrl TYK2(JH1domain-catalytic)
Protocol: as §3, §2

[15] = biological target: FGR (Homo sapiens, UniProt P09769); experiment: KINOMEscan binding; settings: read-out: % Ctrl FGR
Protocol: as §1, §2

[16] = biological target: MTOR (Homo sapiens, UniProt P42345); experiment: KINOMEscan binding; settings: read-out: % Ctrl MTOR
Protocol: as §3, §2

[17] = biological target: PAK1 (Homo sapiens, UniProt Q13153); experiment: KINOMEscan binding; settings: read-out: % Ctrl PAK1
Protocol: as §3, §2

[18] = biological target: MERTK (Homo sapiens, UniProt Q12866); experiment: KINOMEscan binding; settings: read-out: % Ctrl MERTK
Protocol: as §3, §2

[19] = biological target: ABL1-phosphorylated (Homo sapiens, UniProt P00519); experiment: KINOMEscan binding; settings: read-out: % Ctrl ABL1-phosphorylated
Protocol: as §3, §2

[20] = biological target: PDPK1 (Homo sapiens, UniProt O15530); experiment: KINOMEscan binding; settings: read-out: % Ctrl PDPK1
Sequence of PDPK1 (O15530 whole entry): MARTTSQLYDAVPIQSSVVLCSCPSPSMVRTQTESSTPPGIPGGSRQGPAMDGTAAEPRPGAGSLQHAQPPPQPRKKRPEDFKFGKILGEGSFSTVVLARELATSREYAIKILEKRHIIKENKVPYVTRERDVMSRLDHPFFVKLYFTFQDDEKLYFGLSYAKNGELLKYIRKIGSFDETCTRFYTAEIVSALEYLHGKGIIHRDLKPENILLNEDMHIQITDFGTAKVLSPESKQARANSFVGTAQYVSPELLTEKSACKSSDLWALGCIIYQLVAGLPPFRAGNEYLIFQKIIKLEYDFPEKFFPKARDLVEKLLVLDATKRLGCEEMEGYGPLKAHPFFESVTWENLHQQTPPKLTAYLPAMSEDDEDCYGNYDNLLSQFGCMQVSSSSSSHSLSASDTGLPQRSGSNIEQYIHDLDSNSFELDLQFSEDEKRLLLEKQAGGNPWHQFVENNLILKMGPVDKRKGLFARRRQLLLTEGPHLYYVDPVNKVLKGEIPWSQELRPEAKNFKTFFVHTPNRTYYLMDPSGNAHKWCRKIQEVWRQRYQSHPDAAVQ
Protocol: as §3, §2

Sequence of PAK1 (Q13153 whole entry): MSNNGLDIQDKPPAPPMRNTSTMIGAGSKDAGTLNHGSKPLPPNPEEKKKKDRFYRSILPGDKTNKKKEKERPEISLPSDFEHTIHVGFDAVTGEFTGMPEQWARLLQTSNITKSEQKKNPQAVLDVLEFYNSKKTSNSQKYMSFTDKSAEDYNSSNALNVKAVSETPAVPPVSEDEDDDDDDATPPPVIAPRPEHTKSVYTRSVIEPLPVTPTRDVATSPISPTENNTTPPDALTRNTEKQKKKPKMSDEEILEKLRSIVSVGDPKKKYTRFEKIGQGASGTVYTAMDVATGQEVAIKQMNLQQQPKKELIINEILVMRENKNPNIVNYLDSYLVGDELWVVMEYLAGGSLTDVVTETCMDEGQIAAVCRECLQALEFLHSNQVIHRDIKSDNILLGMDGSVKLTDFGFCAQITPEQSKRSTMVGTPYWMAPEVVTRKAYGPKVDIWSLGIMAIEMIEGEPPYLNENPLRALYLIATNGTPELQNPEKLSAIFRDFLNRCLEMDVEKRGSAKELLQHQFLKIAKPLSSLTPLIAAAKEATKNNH
Sequence of ABL1-phosphorylated (P00519 whole entry): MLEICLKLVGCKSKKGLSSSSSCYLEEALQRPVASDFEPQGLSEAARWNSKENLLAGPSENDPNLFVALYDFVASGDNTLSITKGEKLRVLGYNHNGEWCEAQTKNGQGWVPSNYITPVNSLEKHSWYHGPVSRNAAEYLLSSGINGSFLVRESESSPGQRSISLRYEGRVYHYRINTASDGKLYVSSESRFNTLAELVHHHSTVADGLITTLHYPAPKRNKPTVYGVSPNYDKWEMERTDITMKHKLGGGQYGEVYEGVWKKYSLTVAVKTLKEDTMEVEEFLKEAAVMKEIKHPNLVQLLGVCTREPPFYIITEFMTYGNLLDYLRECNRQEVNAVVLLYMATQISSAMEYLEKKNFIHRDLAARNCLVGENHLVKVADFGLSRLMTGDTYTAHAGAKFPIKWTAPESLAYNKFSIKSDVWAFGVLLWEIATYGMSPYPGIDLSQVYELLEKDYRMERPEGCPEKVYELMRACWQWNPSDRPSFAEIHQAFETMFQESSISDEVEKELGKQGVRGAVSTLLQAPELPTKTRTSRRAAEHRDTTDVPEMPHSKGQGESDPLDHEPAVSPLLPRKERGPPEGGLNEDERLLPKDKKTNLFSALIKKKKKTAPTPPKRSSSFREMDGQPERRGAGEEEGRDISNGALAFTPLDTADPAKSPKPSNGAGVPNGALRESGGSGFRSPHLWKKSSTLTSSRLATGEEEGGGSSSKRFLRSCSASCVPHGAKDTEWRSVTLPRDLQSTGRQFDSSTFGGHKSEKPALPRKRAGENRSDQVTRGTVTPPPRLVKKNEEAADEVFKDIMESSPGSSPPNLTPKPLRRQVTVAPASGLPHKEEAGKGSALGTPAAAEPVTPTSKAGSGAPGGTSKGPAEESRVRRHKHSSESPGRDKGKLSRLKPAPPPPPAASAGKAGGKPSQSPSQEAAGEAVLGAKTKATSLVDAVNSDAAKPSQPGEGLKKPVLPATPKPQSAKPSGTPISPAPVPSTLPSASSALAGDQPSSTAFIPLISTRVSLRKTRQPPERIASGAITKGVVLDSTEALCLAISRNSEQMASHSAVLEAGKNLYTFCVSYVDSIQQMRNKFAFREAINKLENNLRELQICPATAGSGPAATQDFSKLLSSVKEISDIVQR
Sequence of JAK2(JH1domain-catalytic) (O60674 841-1132 limits assumed): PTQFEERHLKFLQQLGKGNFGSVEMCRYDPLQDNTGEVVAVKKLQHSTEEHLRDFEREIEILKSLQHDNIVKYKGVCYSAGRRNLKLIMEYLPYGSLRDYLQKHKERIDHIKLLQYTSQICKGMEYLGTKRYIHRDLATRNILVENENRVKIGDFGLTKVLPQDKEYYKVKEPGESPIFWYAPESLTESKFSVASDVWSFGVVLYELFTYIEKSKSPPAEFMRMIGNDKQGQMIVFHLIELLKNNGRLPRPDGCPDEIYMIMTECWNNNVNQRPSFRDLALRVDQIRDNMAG
Sequence of TYK2(JH1domain-catalytic) (P29597 889-1187 limits assumed): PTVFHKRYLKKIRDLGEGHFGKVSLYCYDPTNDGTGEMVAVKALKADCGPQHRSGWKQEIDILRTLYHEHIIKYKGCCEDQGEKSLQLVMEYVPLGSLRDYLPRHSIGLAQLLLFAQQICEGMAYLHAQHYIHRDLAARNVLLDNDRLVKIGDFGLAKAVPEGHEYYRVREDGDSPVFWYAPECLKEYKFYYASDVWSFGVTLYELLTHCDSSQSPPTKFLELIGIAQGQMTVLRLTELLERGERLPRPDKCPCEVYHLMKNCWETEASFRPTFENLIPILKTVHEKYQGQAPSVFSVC
Sequence of ITK (Q08881 whole entry): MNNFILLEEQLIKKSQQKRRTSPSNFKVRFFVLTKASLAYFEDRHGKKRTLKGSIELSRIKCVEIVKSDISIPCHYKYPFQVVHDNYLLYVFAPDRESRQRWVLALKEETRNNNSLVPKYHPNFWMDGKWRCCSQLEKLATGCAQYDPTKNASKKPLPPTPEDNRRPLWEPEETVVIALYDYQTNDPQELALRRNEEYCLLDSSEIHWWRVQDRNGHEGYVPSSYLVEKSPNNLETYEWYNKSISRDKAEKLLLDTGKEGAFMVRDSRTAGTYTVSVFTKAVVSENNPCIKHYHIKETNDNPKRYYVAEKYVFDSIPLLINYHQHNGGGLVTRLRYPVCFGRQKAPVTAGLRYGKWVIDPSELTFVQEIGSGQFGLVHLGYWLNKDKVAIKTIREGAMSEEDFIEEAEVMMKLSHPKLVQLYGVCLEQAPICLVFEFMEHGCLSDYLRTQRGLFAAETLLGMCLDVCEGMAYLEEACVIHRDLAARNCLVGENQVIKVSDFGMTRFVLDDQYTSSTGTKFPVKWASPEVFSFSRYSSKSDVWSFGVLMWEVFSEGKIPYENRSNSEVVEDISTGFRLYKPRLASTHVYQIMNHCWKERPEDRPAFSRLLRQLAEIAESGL
Sequence of TEC (P42680 whole entry): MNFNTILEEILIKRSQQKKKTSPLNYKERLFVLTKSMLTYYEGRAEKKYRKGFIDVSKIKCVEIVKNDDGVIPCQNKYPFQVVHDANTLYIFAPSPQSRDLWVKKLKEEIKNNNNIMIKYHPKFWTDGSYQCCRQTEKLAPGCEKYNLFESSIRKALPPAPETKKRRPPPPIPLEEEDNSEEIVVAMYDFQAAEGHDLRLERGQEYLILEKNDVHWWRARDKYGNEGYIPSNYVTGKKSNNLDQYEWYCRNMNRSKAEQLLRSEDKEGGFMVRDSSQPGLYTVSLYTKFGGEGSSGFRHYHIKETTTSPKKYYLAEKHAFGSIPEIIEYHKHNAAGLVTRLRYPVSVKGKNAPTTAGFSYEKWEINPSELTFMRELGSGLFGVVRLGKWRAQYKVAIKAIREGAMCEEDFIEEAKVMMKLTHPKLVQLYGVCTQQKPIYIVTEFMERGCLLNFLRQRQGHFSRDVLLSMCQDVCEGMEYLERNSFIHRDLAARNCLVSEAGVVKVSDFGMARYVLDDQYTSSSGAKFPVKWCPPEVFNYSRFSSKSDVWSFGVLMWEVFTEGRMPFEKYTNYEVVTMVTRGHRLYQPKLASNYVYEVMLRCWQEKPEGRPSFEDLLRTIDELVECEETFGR
Sequence of BTK (Q06187 whole entry, species assumed): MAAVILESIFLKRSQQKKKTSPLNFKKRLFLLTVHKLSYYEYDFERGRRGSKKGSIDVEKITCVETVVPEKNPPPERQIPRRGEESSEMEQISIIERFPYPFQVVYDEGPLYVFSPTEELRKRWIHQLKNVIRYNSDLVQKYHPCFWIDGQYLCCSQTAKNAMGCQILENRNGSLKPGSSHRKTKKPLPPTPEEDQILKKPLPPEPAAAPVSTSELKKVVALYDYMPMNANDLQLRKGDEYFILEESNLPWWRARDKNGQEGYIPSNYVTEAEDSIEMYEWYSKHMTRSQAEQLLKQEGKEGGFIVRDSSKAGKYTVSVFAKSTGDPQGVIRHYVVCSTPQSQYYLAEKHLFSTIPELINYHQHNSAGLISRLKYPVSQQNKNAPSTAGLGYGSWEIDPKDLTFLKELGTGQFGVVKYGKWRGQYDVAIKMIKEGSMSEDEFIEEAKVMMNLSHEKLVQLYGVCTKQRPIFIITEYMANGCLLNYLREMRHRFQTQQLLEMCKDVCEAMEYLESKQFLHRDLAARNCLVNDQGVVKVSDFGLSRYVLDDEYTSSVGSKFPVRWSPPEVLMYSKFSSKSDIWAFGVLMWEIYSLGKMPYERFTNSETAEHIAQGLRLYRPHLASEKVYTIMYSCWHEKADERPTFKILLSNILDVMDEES
Sequence of JAK1(JH1domain-catalytic) (P23458 867-1154 limits assumed): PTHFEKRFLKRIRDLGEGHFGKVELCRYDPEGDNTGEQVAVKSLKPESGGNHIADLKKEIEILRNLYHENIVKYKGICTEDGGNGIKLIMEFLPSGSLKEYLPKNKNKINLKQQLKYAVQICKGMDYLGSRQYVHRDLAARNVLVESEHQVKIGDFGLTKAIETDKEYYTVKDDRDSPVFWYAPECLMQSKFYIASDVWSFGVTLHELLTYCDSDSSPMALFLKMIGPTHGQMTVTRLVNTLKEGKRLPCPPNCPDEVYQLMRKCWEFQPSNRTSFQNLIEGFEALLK

Row | SMILES | GI50 [1] [µM] | GI50 [2] [µM] | GI50 [3] [µM] | GI50 [4] [µM] | GI50 [5] [µM] | degradation of BMX protein [6] | remaining binding at 1 µM [7] [%] | remaining binding at 1 µM [8] [%] | remaining binding at 1 µM [9] [%] | remaining binding at 1 µM [10] [%] | remaining binding at 1 µM [11] [%] | remaining binding at 1 µM [12] [%] | remaining binding at 1 µM [13] [%] | remaining binding at 1 µM [14] [%] | remaining binding at 1 µM [15] [%] | remaining binding at 1 µM [16] [%] | remaining binding at 1 µM [17] [%] | remaining binding at 1 µM [18] [%] | remaining binding at 1 µM [19] [%] | remaining binding at 1 µM [20] [%]
1 | C=CC(=O)Nc1cc(-n2c(=O)ccc3cnc4cc(-c5ccc(NS(C)(=O)=O)cc5)ccc4c32)ccc1C [JS24] | 4.4 | 4.8 | 5.04 ± 0.01 | 8.56 | 1.27 ± 0.05 |  |  |  |  |  |  |  |  |  |  |  |  |  |  | 
2 | C=CC(=O)Nc1cc(C)cc(-n2c(=O)ccc3cnc4cc(-c5ccc(NS(C)(=O)=O)cc5)ccc4c32)c1 [JS25] |  |  |  |  |  | induce degradation of wild-type BMX in PC3 cells | 1.3 | 0 | 4.7 | 0.4 | 89 | 93 | 81 | 100 | 93 | 100 | 100 | 89 | 100 | 92
